The source made the active and inactive calls. No cut-off for these calls is given here. *1 amine or outer side, *2 acyl side, *3 side chain or, on linkers, in order; H or OH if unused. Where a SMILES comes first, the peptide text is derived from it. Bridges are numbered along the chain shown (N, C = ends). [ ]: non-standard residue; d: D form. The star is where a group is joined. X1 = NC1=N[C@@H]([C@H](N[*:1])C(=O)[*:2])C[C@H](O)N1; ΔAla(Z-3-ureido) = NC(=O)N/C=C(\N)C(=O)O; β3hOrn = NCCC[C@H](N)CC(=O)*; Dap = NC[C@H](N)C(=O)O
What was measured:
Type in all cases: nucleic-acid assay
[1] = biological target: Nucleic Acid; test: Binding affinity to ribosome/exit tunnel RNA region
[2] = biological target: Nucleic Acid; test: Binding affinity to RNA ribosome intersubuint bridge
[3] = test system: Nucleic Acid; test: Displacement of gentamycin from Escherichia coli 16S ribosomal 27-nucleotide A-site RNA by T2 filter NMR spectroscopy based competitive displacement assay
[4] = test system: Nucleic Acid; test: Displacement of gentamycin from Escherichia coli 16S ribosomal 27-nucleotide A-site RNA by water Logsy NMR spectroscopy based competitive displacement assay
[5] = test system: Nucleic Acid; test: Displacement of gentamycin from RNA bulge site of Escherichia coli 16S ribosomal 27-nucleotide A-site RNA by water Logsy NMR spectroscopy based noncompetitive binding assay
[6] = test system: Nucleic Acid; test: Displacement of gentamycin from RNA bulge site of Escherichia coli 16S ribosomal 27-nucleotide A-site RNA by T2 filter NMR spectroscopy based competitive binding assay
[7] = biological target: Nucleic Acid; test: Binding affinity to A-site RNA
[8] = biological target: Nucleic Acid; test: Binding affinity to small bacterial subunit RNA
[9] = test system: Nucleic Acid; test: Binding affinity to Escherichia coli 23S rRNA L11 binding domain
[10] = biological target: Nucleic Acid; test: Binding affinity to RNAse P
[11] = test system: Nucleic Acid; test: Binding affinity to Escherichia coli 23S rRNA L11 binding domain in presence of protein

Work on `CC[C@H]1OC(=O)C[C@@H](O)[C@H](C)[C@@H](O[C@@H]2O[C@H](C)[C@@H](O[C@H]3C[C@@](C)(O)[C@@H](O)[C@H](C)O3)[C@H](N(C)C)[C@H]2O)[C@@H](CC=O)C[C@@H](C)C(=O)/C=C/C(C)=C/[C@@H]1CO[C@@H]1O[C@H](C)[C@@H](O)[C@@H](OC)[C@H]1OC` [TYLOSIN] yielded a Kd [1] of 2.75 nM.

For `NCCC[C@H](N)CC(=O)N[C@H]1CNC(=O)[C@H]([C@H]2C[C@H](O)NC(N)=N2)NC(=O)/C(=C/NC(N)=O)NC(=O)[C@H](CO)NC(=O)[C@H](CO)NC1=O` [VIOMYCIN] (β3hOrn-[Dap]SS[ΔAla(Z-3-ureido)][X1]; lactam 1-C), the Kd [2] was under 3000 nM.

`N[C@@H]1C[C@H](N)[C@@H](O)[C@H](O)[C@H]1O` was tested, and the Activity [3] was “Active” and the Activity [4] was “Active”.

For `c1ccc2nc3ccccc3cc2c1`, the Activity [5] was “Active” and the Activity [6] was “Active”.

`NC[C@@H]1O[C@H](O[C@H]2[C@@H](O)[C@H](O[C@@H]3[C@@H](O)[C@H](N)C[C@H](N)[C@H]3O[C@H]3O[C@H](CO)[C@@H](O)[C@H](O)[C@H]3N)O[C@@H]2CO)[C@H](N)[C@@H](O)[C@@H]1O` [PAROMOMYCIN] was tested, and the Kd [7] was under 12000 nM.

`CN[C@@H]1[C@@H](O[C@H]2O[C@H](CO)[C@@H](N)[C@H](O)[C@H]2O)OC2C[C@@H](N)[C@@H](O[C@H]3[C@H](O)[C@@H](O)[C@H](N)C[C@@H]3N)OC2[C@@H]1O` (stereo partly drawn) [APRAMYCIN] was tested, and the Kd [7] was 60 nM.

In the case of `NC[C@H]1O[C@H](O[C@H]2[C@H](O[C@@H]3O[C@H](CO)[C@@H](O)[C@H]3O)[C@@H](O)[C@H](N)C[C@@H]2N)[C@H](N)[C@@H](O)[C@@H]1O` [RIBOSTAMYCIN], the Kd [7] is reported as 1700 nM.

`NC[C@H]1O[C@H](O[C@H]2[C@H](O)[C@@H](O[C@H]3O[C@H](CO)[C@@H](O)[C@H](N)[C@H]3O)[C@H](N)C[C@@H]2N)[C@H](N)[C@@H](O)[C@@H]1O` [BEKANAMYCIN] was tested, and the Kd [7] was 60 nM.

With `NC[C@H]1O[C@H](O[C@H]2[C@H](O)[C@@H](O[C@H]3O[C@H](CO)[C@@H](O)[C@H](N)[C@H]3O)[C@H](N)C[C@@H]2N)[C@H](N)C[C@@H]1O` [TOBRAMYCIN] the Kd [7] was 80 nM.

`Cc1cc(N(C)C)nc2cc(N)ccc12` was tested, and the Activity [3] was “Active” and the Activity [4] was “Active”.

`NC[C@@H]1O[C@H](O[C@H]2[C@@H](O)[C@H](O[C@@H]3[C@@H](O)[C@H](N)C[C@H](N)[C@H]3O[C@H]3O[C@H](CN)[C@@H](O)[C@H](O)[C@H]3N)O[C@@H]2CO)[C@H](N)[C@@H](O)[C@@H]1O` [FRAMYCETIN] showed a Kd [7] of 60 nM.

In the case of `CN[C@@H]1[C@H](O[C@H]2[C@H](O[C@H]3[C@H](O)[C@@H](O)[C@H](N=C(N)N)[C@@H](O)[C@@H]3N=C(N)N)O[C@@H](C)[C@]2(O)C=O)O[C@@H](CO)[C@H](O)[C@H]1O` [STREPTOMYCIN], the Kd [8] is reported as under 12000 nM.

Work on `C=C(NC(=O)c1csc(-c2nc3c(cc2O)-c2nc(cs2)C(=O)NC(C(C)O)C(=O)N/C(=C\C)c2nc(cs2)C(=O)NC2CC(O)C(=O)OCc4cccc5[nH]c(c(C)c45)C(=O)SCC(NC(=O)c4csc2n4)c2nc-3cs2)n1)C(N)=O` (stereo not drawn) [NOSIHEPTIDE] yielded a Kd [9] of under 3000 nM.

Work on `NC[C@@H]1O[C@@H](O[C@H]2[C@H](O)[C@@H](O[C@H]3O[C@H](CO)[C@@H](O)[C@H](N)[C@H]3O)[C@H](N)C[C@@H]2N)[C@@H](O)[C@H](O)[C@H]1O` [KANAMYCIN A] yielded a Kd [7] of 100 nM.

In the case of `CN[C@@H]1[C@@H](O)[C@@H](O[C@@H]2[C@@H](O)[C@H](O[C@H]3O[C@H]([C@@H](C)O)[C@@H](O)[C@H](O)[C@H]3N)[C@@H](N)C[C@H]2N)OC[C@]1(C)O` [GENETICIN], the Kd [7] is reported as under 100 nM.

In the case of `NC(=O)Cc1ccccn1` [PYRIDINE ACETAMIDE], the Kd [10] is reported as 20000 nM.

`NCC[C@H](O)C(=O)N[C@@H]1C[C@H](N)[C@@H](O[C@H]2O[C@H](CN)[C@@H](O)[C@H](O)[C@H]2O)[C@H](O)[C@H]1O[C@H]1O[C@H](CO)[C@@H](O)[C@H](N)[C@H]1O` [AMIKACIN] gave a Kd [7] of 50 nM.

`NC[C@@H]1O[C@H](O[C@H]2[C@@H](O)[C@H](O[C@@H]3[C@@H](O)[C@H](N)C[C@H](N)[C@H]3O[C@H]3O[C@H](CO)[C@@H](O)C[C@H]3N)O[C@@H]2CO)[C@H](N)[C@@H](O)[C@@H]1O[C@H]1O[C@H](CO)[C@@H](O)[C@H](O)[C@@H]1O` [LIVIDOMYCIN] was tested, and the Kd [7] was 28 nM.

`C=C(NC(=O)C(=C)NC(=O)c1csc(C2=N[C@@H]3c4csc(n4)[C@H]4NC(=O)c5csc(n5)[C@H]([C@](C)(O)[C@@H](C)O)NC(=O)[C@H]5CSC(=N5)/C(=C/C)NC(=O)[C@H]([C@@H](C)O)NC(=O)c5csc(n5)[C@]3(CC2)NC(=O)[C@H](C)NC(=O)C(=C)NC(=O)[C@H](C)NC(=O)[C@H]([C@@H](C)CC)N[C@@H]2C=Cc3c([C@H](C)O)cc(nc3[C@H]2O)C(=O)O[C@@H]4C)n1)C(N)=O` [THIOSTREPTON] gave a Kd [9] of 1300 nM and a Kd [11] of under 50 nM.
